{"source": "patent US7101568B2", "about": "“Methods and compositions for treating solid tumors” (Guilford Pharmaceuticals, Inc., priority 1999, dated 2006)", "key": {"A549 tumor nodules": {"system": "A549 tumor nodules", "assay": "Murine tumor nodule model, A549 tumor volume doubling time", "type": "in vivo, mouse", "conditions": "A549, 24 mg/kg paclitaxel", "protocol": "Athymic nude Balb/c mice were engrafted with human non-small cell lung cancer cell lines (A549 and H1299, both of which were obtained from the American Type Culture Collection).\n(§1) The cells were grown to confluence in DMEM/F12 medium (Mediatech, Herndon, Va.) supplemented with 10% fetal bovine serum (“growth medium”) under antibiotic-free conditions at 37° in a 5% CO2 atmosphere. After growing under standard these tissue culture conditions, the cells were enzymatically detached, enumerated, and the concentration was adjusted as required.\n(§2) The cells were mixed 1:1 with Matrigel™ as an enhancer for engraftment, and 2×10^6 cells were injected subcutaneously on the flanks. Tumors were allowed to grow until achieving a volume of approximately 200-400 mm^3, as determined by the formula: Tumor volume=(length)×(width)×(height) The dimensions of the tumor on each test animal were measured directly with calipers.\nVarious formulations of paclitaxel were administered to the test animals bearing tumors, either systemically or intratumorally. Each animal was weighed at the time of treatment so that dosages could be adjusted to achieve the mg/kg amounts reported. Systemic administration was achieved by injecting the test composition into the intraperitoneal cavity of the test animal. For intraperitoneal (“IP”) injections, the animals received a total injection volume of approximately 1 mL.\nIntratumoral administration (“IT”), on the other hand, was accomplished by the following procedure: • (1) injecting a single volume of about 100 μl (0.1 mL) the test composition into the center of the tumor nodule with a 21-25 gauge needle over a time period of about 10-20 seconds; • (2) infusing the volume over about 10-15 seconds, and then leaving the needle in place for an additional time of about 10-20 seconds; and • (3) withdrawing the needle. Following the treatments, all mice were tagged, and the tumors were measured three times weekly with calipers. Test animals were also weighed once weekly.\nThe tumor volume doubling time was determined from the tumor measurements in all treatment groups."}, "H1299 tumor nodules": {"system": "H1299 tumor nodules", "assay": "Murine tumor nodule model, H1299 tumor volume doubling time", "type": "in vivo, mouse", "conditions": "H1299, 24 mg/kg paclitaxel", "protocol": "A murine tumor nodule model, a widely used and accepted model for investigating the efficacy of therapies for solid tumors, was used to establish the utility of sustained release for solid tumors. Athymic nude Balb/c mice were engrafted with human non-small cell lung cancer cell lines (A549 and H1299, both of which were obtained from the American Type Culture Collection).\nas §1, §2\nVarious formulations of paclitaxel were administered to the test animals bearing tumors, either systemically or intratumorally. Each animal was weighed at the time of treatment so that dosages could be adjusted to achieve the mg/kg amounts reported. […]\nIntratumoral administration (“IT”), on the other hand, was accomplished by the following procedure: • (1) injecting a single volume of about 100 μl (0.1 mL) the test composition into the center of the tumor nodule with a 21-25 gauge needle over a time period of about 10-20 seconds; • (2) infusing the volume over about 10-15 seconds, and then leaving the needle in place for an additional time of about 10-20 seconds; and • (3) withdrawing the needle. Following the treatments, all mice were tagged, and the tumors were measured three times weekly with calipers. […]\nTime-dependent changes in H1299 tumor nodule growth and/or sizes following different treatments were determined. […]"}, "[1]": {"conditions": "intratumoral, listed as conventional paclitaxel"}}, "data": [{"molecule": "CC(=O)O[C@H]1C(=O)[C@@]2(C)[C@H]([C@H](OC(=O)c3ccccc3)[C@]3(O)C[C@H](OC(=O)[C@H](O)[C@@H](NC(=O)c4ccccc4)c4ccccc4)C(C)=C1C3(C)C)[C@]1(OC(C)=O)CO[C@@H]1C[C@@H]2O", "note": "[conventionally formulated paclitaxel, paclitaxel]", "values": [{"measurement": "tumor volume doubling time", "setting": "A549 tumor nodules; intraperitoneal", "result": "11.5 ± 2.3", "unit": "days"}, {"measurement": "tumor volume doubling time", "setting": "A549 tumor nodules; intratumoral", "result": "10.2 ± 4.7", "unit": "days"}, {"measurement": "tumor volume doubling time", "setting": "A549 tumor nodules; [1]", "result": 10, "unit": "days"}, {"measurement": "tumor volume doubling time", "setting": "H1299 tumor nodules; intraperitoneal", "result": "12 ± 1.9", "unit": "days"}, {"measurement": "tumor volume doubling time", "setting": "H1299 tumor nodules; intratumoral", "result": "11.2 ± 1.9", "unit": "days"}, {"measurement": "tumor volume doubling time", "setting": "H1299 tumor nodules; [1]", "result": 11, "unit": "days"}]}]}
